Legend:
[1] = system: vasodilation in the rat hind paw; assay: Vasodilation (skin blood flow) in the rat hind paw after saphenous nerve stimulation, method of Kajekar et al; format: in vivo; details: intravenous
Description: The test compound is administered intravenously at different doses and the results are recorded as the change in the increase in skin blood flow.

[2] = system: oedema in the rat hind paw; details: intravenous, saphenous nerve stimulation; cited from earlier work
[3] = system: neurogenic inflammation in dura mater; details: in vivo; cited from earlier work

Row | SMILES | lowest dose with significant effect on the increase in skin blood flow (vasodilation) [1] [mol/kg] | lowest administered amount with significant effect on ratio of plasma extravasation in the stimulated/unstimulated hind paw [2] [mol/kg] | potency against neurogenic inflammation in dura mater [3]
1 | CNS(=O)(=O)Cc1ccc2[nH]cc(C[C@H]3CCCN3C)c2c1 [CP-122,288, (R)-5-(methylaminosulphonylmethyl)-3-(N-methylpyrrolidin-2-ylmethyl)-1H-indole] | 2e-12 | 2e-14 | exhibit potency against neurogenic inflammation
2 | CNS(=O)(=O)Cc1ccc2[nH]cc(C[C@H]3CCCN3)c2c1 [CP-122,638, (R)-5-(methylaminosulphonylmethyl)-3-(pyrrolidin-2-ylmethyl)-1H-indole] |  |  | exhibit potency against neurogenic inflammation
